From patent US20160046592A1, “PHARMACEUTICAL COMPOSITION FOR THE TREATMENT OF DIABETES” (Ajinomoto Co., Inc., priority 2013, published 2016)
Structures can show the parent of a compound that is named as a salt.

Target: T1, human GYS1 (glycogen synthase) (Homo sapiens, UniProt P13807)
T1 construct: made in house; host or cells: HEK293T
T1 sequence (P13807 1-737): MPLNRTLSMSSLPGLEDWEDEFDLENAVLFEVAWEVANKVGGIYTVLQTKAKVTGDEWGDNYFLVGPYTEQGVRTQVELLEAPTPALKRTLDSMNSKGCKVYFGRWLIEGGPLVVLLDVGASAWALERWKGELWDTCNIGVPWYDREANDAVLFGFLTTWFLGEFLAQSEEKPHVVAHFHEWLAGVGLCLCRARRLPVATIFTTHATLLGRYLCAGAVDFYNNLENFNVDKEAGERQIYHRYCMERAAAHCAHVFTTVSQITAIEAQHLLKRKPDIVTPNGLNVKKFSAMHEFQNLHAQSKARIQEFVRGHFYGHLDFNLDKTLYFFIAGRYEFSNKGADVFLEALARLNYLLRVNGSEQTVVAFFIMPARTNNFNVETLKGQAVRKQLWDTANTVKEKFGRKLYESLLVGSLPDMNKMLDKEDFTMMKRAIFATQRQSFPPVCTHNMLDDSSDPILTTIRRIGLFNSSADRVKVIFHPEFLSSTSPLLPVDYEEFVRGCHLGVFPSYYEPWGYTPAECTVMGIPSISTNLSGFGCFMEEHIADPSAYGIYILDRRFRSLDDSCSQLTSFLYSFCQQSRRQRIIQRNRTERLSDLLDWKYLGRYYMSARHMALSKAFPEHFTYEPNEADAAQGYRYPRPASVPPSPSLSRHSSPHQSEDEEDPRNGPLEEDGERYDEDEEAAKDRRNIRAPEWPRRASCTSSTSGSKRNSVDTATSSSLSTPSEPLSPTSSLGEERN
Experiment: Measurement of glycogen synthase activity
Format: biochemical
Details: concentration causing 50% increase in relative activity; 100% = compound of Example 1 of WO/2011/058154 at 10 μM; 10 mM Glucose-6-phosphate; 37° C. for 25 minutes (Examples 1 to 61 and 67 to 82) or 20 minutes (Examples 62 to 66); absorbance at 340 nm
Experimental: A human GYS1 expression plasmid (pCDNA3.1(+)-hGYS1) was constructed by the following method. By using a human skeletal muscle cDNA of Human MTC Panel I (Takara Bio Inc., 636742) as a template, a human GYS1 gene was amplified by a PCR method using cloning primers (Forward Primer: ATGCCTTTAAACCGCAC, Reverse Primer: TTAGTTACGCTCCTCGC). By using the amplified human GYS1 sequence as a template, restriction enzyme sequences were added by a PCR method using sub-cloning primers (Forward Primer: […], and Reverse Primer: […]), and then the human GYS1 gene was introduced between Xho I and Xba I sites of pCDNA3.1(+) (Invitrogen, V790-20).
Glycogen synthase was prepared by the following method. Human kidney-derived HEK293T cells were seeded in a dish (Thermo Fisher Scientific K.K., 168381) by using a 10% FBS-containing DMEM (Nacalai Tesque, Inc., 0845874) medium, and cultured overnight. Then, by using Lipofectamine LTX (Invitrogen, 15338-100), the cells were transfected with the human GYS1 expression vector according to the attached manual. After culturing under conditions of 37° C. and 5% CO2 for 2 days, the resultant was lysed in a lysis buffer (50 mM Tris-HCl (pH 8.0), 10 mM EDTA, 2 mM EGTA, 100 mM NaF, 1 mM PMSF, 1 mM DTT, and 1× Complete (Roche, 1873580)), homogenized, and then centrifuged at 16000×g at 4° C. for 15 minutes. The precipitated fraction re-dissolved by adding the lysis buffer was used as a glycogen synthase for evaluation.
The glycogen synthase activity was measured by the following method. To a polystyrene 96-well plate, solutions each containing 30 mM glycylglycine (pH 7.3), 40 mM KCl, 20 mM MgCl2, 9.2% DMSO containing one of the test compounds at one of various concentrations, and 10 mM Glucose-6-phosphate (Sigma-Aldrich, G7879) were added at 12 μL/well.
Next, a substrate solution containing 30 mM glycylglycine (pH 7.3), 4.3 mg/mL glycogen (Sigma-Aldrich, G8876), 21.6 mM UDP-glucose (Sigma-Aldrich, U4625), 21.6 mM phosphoenolpyruvic acid (Sigma-Aldrich, P0564), and 4.05 mM NADH (Sigma-Aldrich, N8129) was added at 18 μL/well.
Moreover, an enzyme solution containing 50 mM Tris-HCl (pH 8.0), 27 mM DTT (NACALAI TESQUE, INC., 14128-04), 0.2 mg/mL bovine serum albumin, 0.17 mg/mL glycogen synthase, and 1.5 μL pyruvate kinase/lactate dehydrogenase solution (Sigma-Aldrich, P0294) was added at 18 μL/well to prepare reaction solutions. After the reaction solutions were incubated (at 37° C. for 25 minutes for Examples 1 to 61 and 67 to 82 or at 37° C. for 20 minutes for Examples 62 to 66), the absorbance at 340 nm was measured by using Benchmark Plus (Bio-Rad Laboratories, Inc.).
The activity of each test compound was calculated by the following method. The absorbance at 340 nm of the reaction solution containing the compound and DMSO was subtracted from the absorbance at 340 nm of a reaction solution not containing the compound but containing only DMSO to calculate the change (ΔA340) in absorbance. The relative activity (%) of the test compound at each of the various concentrations was calculated, where the ΔA340 of a reaction solution containing the compound of Example 1 of WO/2011/058154 at a final concentration of 10 μM was taken as 100%. EC50 representing the concentration of the compound at which an increase in the relative activity by 50% was caused was calculated using XLfit (idbs).

SMILES	EC50 [nM]
NC(=O)C1CC[C@@H](C(=O)O)N1C(=O)c1cccc(COc2ccc(-c3cc(F)c(F)c4ccoc34)cc2)c1 (single isomer, unassigned) [Example 4, (2S,5R) or (2S,5S)-5-Carbamoyl-1-[3-[[4-(4,5-difluorobenzofuran-7-yl)phenoxy]methyl]benzoyl]pyrrolidine-2-carboxylic Acid]	< 3
NC(=O)CN(CC(=O)O)C(=O)c1cccc(COc2ccc(-c3cc(F)c(F)c4ccoc34)cc2)c1 [Example 1, 2-[(2-Amino-2-oxo-ethyl)-[3-[[4-(4,5-difluorobenzofuran-7-yl)phenoxy]methyl]benzoyl]amino]acetic Acid]	13
O=C(O)[C@@H]1[C@@H](O)CCN1C(=O)c1cccc(COc2ccc(-c3cc(F)c(F)c4ccoc34)cc2)c1 [Example 2, (2S,3S)-1-[3-[[4-(4,5-Difluorobenzofuran-7-yl)phenoxy]methyl]benzoyl]-3-hydroxy-pyrrolidine-2-carboxylic Acid]	4.3
COCCN(CC(=O)O)C(=O)c1cccc(COc2ccc(-c3cc(F)c(F)cc3SC)cc2)c1 [Example 6, 2-[[3-[[4-(4,5-Difluoro-2-methylsulfanyl-phenyl)phenoxy]methyl]benzoyl]-(2-methoxyethyl)amino]acetic Acid]	17
CS(=O)(=O)CCN(CC(=O)O)C(=O)c1cccc(COc2ccc(-c3cc(F)c(F)c4ccoc34)cc2)c1 [Example 8, 2-[[3-[[4-(4,5-Difluorobenzofuran-7-yl)phenoxy]methyl]benzoyl]-(2-methylsulfonylethyl)amino]acetic Acid]	15
O=C(O)CN(CC1CCOCC1)C(=O)c1cccc(COc2ccc(-c3cc(F)c(F)c4ccoc34)cc2)c1 [Example 9, 2-[[3-[[4-(4,5-Difluorobenzofuran-7-yl)phenoxy]methyl]benzoyl]-(tetrahydropyran-4-ylmethyl)amino]acetic Acid]	16
CN(C)C(=O)CN(CC(=O)O)C(=O)c1cccc(COc2ccc(-c3cc(F)c(F)c4ccoc34)cc2)c1 [Example 11, 2-[[3-[[4-(4,5-Difluorobenzofuran-7-yl)phenoxy]methyl]benzoyl]-[2-(dimethylamino)-2-oxo-ethyl]amino]acetic Acid]	10
Cc1coc2c(-c3ccc(OCc4cccc(C(=O)N(CCS(C)(=O)=O)CC(=O)O)c4)cc3)cc(F)c(F)c12 [Example 14, 2-[[3-[[4-(4,5-Difluoro-3-methyl-benzofuran-7-yl)phenoxy]methyl]benzoyl]-(2-methylsulfonylethyl)amino]acetic Acid]	15
CNC(=O)CN(CC(=O)O)C(=O)c1cccc(COc2ccc(-c3cc(F)c(F)c4ccoc34)cc2)c1 [Example 15, 2-[[3-[[4-(4,5-Difluorobenzofuran-7-yl)phenoxy]methyl]benzoyl]-[2-(methylamino)-2-oxo-ethyl]amino]acetic Acid]	13

Further lines, results first:

EC50 [nM]	SMILES
10	CSc1cc(F)c(F)cc1-c1ccc(OCc2cccc(C(=O)N3C(C(N)=O)CC[C@H]3C(=O)O)c2)cc1 (single isomer, unassigned) [Example 57, (2S,5R) or (2S,5S)-5-Carbamoyl-1-[3-[[4-(4,5-difluoro-2-methylsulfanyl-phenyl)phenoxy]methyl]benzoyl]pyrrolidine-2-carboxylic Acid]
7.3	CSc1cc(F)c(F)cc1-c1ccc(OCc2cccc(C(=O)N3C(C(N)=O)CC[C@H]3C(=O)O)c2)cc1 (single isomer, unassigned) [Example 58, (2S,5S) or (2S,5R)-5-Carbamoyl-1-[3-[[4-(4,5-difluoro-2-methylsulfanyl-phenyl)phenoxy]methyl]benzoyl]pyrrolidine-2-carboxylic Acid]
22	NC(=O)C1CC[C@@H](C(=O)O)N1C(=O)c1cccc(COc2ccc(-c3cc(F)c(F)c4ccoc34)cc2)c1 (single isomer, unassigned) [Example 76, (2S,5S) or (2S,5R)-5-Carbamoyl-1-[3-[[4-(4,5-difluorobenzofuran-7-yl)phenoxy]methyl]benzoyl]pyrrolidine-2-carboxylic Acid]
21	COC1CCN(C(=O)c2cccc(COc3ccc(-c4cc(F)c(F)cc4SC)cc3)c2)C1C(=O)O (stereo in doubt) [Example 33, (2S,3S)-1-[3-[[4-(4,5-Difluoro-2-methylsulfanyl-phenyl)phenoxy]methyl]benzoyl]-3-methoxy-pyrrolidine-2-carboxylic Acid]
16	O=C(O)[C@@H]1[C@H](O)CCN1C(=O)c1cccc(COc2ccc(-c3cc(F)c(F)c4ccoc34)cc2)c1 [Example 3, (2S,3R)-1-[3-[[4-(4,5-Difluorobenzofuran-7-yl)phenoxy]methyl]benzoyl]-3-hydroxy-pyrrolidine-2-carboxylic Acid]
< 10	CSc1cc(F)c(F)cc1-c1ccc(OCc2cccc(C(=O)N3CC[C@H](O)[C@H]3C(=O)O)c2)cc1 [Example 5, (2S,3S)-1-[3-[[4-(4,5-Difluoro-2-methylsulfanyl-phenyl)phenoxy]methyl]benzoyl]-3-hydroxy-pyrrolidine-2-carboxylic Acid]
11	CSc1cc(F)c(F)cc1-c1ccc(OCc2cccc(C(=O)N(CCC#N)CC(=O)O)c2)cc1 [Example 7, 2-[2-Cyanoethyl-[3-[[4-(4,5-difluoro-2-methylsulfanyl-phenyl)phenoxy]methyl]benzoyl]amino]acetic Acid]
7.2	CSc1cc(F)c(F)cc1-c1ccc(OCc2cccc(C(=O)N(CC(N)=O)CC(=O)O)c2)cc1 [Example 10, 2-[(2-Amino-2-oxo-ethyl)-[3-[[4-(4,5-difluoro-2-methylsulfanyl-phenyl)phenoxy]methyl]benzoyl]amino]acetic Acid]
16	O=C(O)CN(CC1CCNCC1)C(=O)c1cccc(COc2ccc(-c3cc(F)c(F)c4ccoc34)cc2)c1 [Example 12, 2-[[3-[[4-(4,5-Difluorobenzofuran-7-yl)phenoxy]methyl]benzoyl]-(4-piperidylmethyl)amino]acetic Acid Trifluoroacetate]
15	CN(C)CCN(CC(=O)O)C(=O)c1cccc(COc2ccc(-c3cc(F)c(F)c4ccoc34)cc2)c1 [Example 13, 2-[[3-[[4-(4,5-Difluorobenzofuran-7-yl)phenoxy]methyl]benzoyl]-(2-dimethylaminoethyl)amino]acetic Acid Trifluoroacetate]
